Measurements from ChEMBL document CHEMBL1127173, “EPSP synthase inhibitor deisgn III. Synthesis & evaluation of a new 5-oxamic acid analog of EPSP which incorporates a malonate ether as a 3-phosphate mimic” (Bioorg Med Chem Lett, 1993).

Biological target: T1, 3-phosphoshikimate 1-carboxyvinyltransferase (Escherichia coli K-12, UniProt P0A6D3)
T1 sequence (P0A6D3 whole entry): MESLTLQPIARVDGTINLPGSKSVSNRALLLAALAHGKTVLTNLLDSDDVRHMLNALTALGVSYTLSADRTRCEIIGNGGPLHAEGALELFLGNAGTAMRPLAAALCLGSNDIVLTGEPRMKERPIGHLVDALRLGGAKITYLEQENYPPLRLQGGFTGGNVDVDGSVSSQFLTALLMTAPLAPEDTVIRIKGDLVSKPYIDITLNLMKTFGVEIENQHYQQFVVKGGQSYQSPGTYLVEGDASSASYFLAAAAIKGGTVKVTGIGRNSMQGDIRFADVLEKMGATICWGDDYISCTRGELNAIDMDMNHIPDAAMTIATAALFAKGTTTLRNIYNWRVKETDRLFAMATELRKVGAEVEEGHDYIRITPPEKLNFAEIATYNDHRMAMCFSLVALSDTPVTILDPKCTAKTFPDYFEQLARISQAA
Test: The compound was tested for the inhibition of Escherichia coli 5-enolpyruvyl-shikimate-3-phosphate synthase (EPSP).

| Ki | IC50 | SMILES |
| --- | --- | --- |
| 1.5 µM | – | O=C(O)CO[C@@H]1CC(C(=O)O)=C[C@@H](OP(=O)(O)O)[C@H]1O |
| 5.2 µM | – | O=C(O)C(=O)N[C@@H]1CC(C(=O)O)=C[C@@H](OC(C(=O)O)C(=O)O)[C@H]1O |
| 90 µM | – | N[C@@H]1CC(C(=O)O)=C[C@@H](OP(=O)(O)O)[C@H]1O |
| – | > 10000 µM | O=C(O)C(=O)N[C@@H]1CC(C(=O)O)=C[C@@H](O)[C@H]1O |
